From patent publication US8106055B2, “Substituted amide compounds” (Gruenenthal GmbH, priority 2007, dated 2012)

Tests used:
[1] = target: T1, human bradykinin 1 receptor (B1R) (Homo sapiens, UniProt P46663); assay: Functional investigation on the human bradykinin 1 receptor (B1R), Ca2+ FLIPR assay in CHO K1 hB1R cells; format: cell-based; settings: test substance 10 μM, Ca2+ FLIPR, CHO K1 hB1R cells; for inhibition at 10 µM: CHO-K1, B1R antagonism human, read-out: B1R Ant. h [10 μM] % Inhibition; for B1R Ant. h [10 μM] % Inhibition: B1R antagonism human
T1 construct: expressed in transfected cells; host or cells: CHO K1 cells
T1 sequence (P46663 1-353): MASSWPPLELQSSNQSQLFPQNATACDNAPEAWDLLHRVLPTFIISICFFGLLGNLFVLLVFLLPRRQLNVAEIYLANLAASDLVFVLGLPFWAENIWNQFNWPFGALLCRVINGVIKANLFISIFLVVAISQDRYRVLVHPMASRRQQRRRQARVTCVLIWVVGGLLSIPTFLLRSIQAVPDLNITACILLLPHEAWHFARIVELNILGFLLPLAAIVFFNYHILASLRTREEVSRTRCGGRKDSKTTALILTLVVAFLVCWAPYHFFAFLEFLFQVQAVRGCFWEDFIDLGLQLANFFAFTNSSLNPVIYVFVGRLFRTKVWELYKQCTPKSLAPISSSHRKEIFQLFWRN
Outline: (§1)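 Stably transfected CHO K1 cells loaded with Fluo-4; FLIPR Ca2+ fluorescence peak (ex 488/em 540 nm). Compound added first (agonism vs Lys-Des-Arg9-bradykinin ≥50 nM human, Des-Arg9-bradykinin 10 μM rat), then after 10-20 min agonist at EC80; antagonism as % inhibition, IC50 from concentration series, n=2-3, N≥2.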

[2] = target: T2, bradykinin 1 receptor (B1R) of the rat (Rattus norvegicus, UniProt P97583); assay: Functional investigation on the rat bradykinin 1 receptor (B1R), Ca2+ FLIPR assay in CHO K1 rB1R cells; format: cell-based; settings: test substance 10 μM, Ca2+ FLIPR, CHO K1 rB1R cells; for inhibition at 10 µM: CHO-K1, B1R antagonism rat, read-out: B1R Ant. r [10 μM] % Inhibition; for B1R Ant. r [10 μM] % Inhibition: B1R antagonism rat
T2 construct: expressed in transfected cells; host or cells: CHO K1 cells
T2 sequence (P97583 1-337): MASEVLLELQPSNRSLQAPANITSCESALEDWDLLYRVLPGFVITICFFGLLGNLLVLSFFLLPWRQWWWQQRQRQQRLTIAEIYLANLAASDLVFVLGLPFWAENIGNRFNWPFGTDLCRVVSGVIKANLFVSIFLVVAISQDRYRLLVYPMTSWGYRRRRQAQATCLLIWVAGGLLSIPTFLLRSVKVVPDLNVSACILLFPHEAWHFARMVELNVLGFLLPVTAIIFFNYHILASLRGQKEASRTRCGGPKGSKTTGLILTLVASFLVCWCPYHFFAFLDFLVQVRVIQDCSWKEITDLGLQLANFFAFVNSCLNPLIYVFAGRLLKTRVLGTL
Outline: as §1

COc1ccc(S(=O)(=O)N2CCCCC2CCOCC(=O)NC2CCC(C(c3cccs3)N(C)C)CC2)cc1 (stereo not drawn) [Example 6, N-(4-((dimethylamino)(thiophen-2-yl)methyl)cyclohexyl)-2-(2-(1-(4-methoxyphenylsulfonyl)piperidin-2-yl)ethoxy)acetamide]
inhibition at 10 µM [1]: 24% | inhibition at 10 µM [2]: 34%

COc1ccc(S(=O)(=O)N(C)CCOCC(=O)NCC2CCC(C(c3cccs3)N(C)C)CC2)cc1OC (stereo not drawn) [Example 127, 2-(2-(3,4-Dimethoxy-N-methylphenylsulfonamido)ethoxy)-N-((4-((dimethylamino)(thiophen-2-yl)methyl)cyclohexyl)methyl)acetamide]
inhibition at 10 µM [1]: -13% | inhibition at 10 µM [2]: 21%

CN(C)C(CCc1ccccc1)C1CCC(CNC(=O)COCCN(C)S(=O)(=O)c2ccc(OC(F)(F)F)cc2)CC1 (stereo not drawn) [Example 567]
B1R Ant. h [10 μM] % Inhibition [1]: 75% | B1R Ant. r [10 μM] % Inhibition [2]: 42%

CN(C)C(c1cccc(F)c1)C1CCC(CCNC(=O)COCCN(C)S(=O)(=O)c2ccc(Cl)cc2Cl)CC1 (stereo not drawn) [Example 126, 2-(2-(2,4-dichloro-N-methylphenylsulfonamido)ethoxy)-N-(2-(4-((dimethylamino)(3-fluorophenyl)methyl)cyclohexyl)ethyl)acetamide]
inhibition at 10 µM [1]: 103% | inhibition at 10 µM [2]: 59%

COc1cc(C)c(S(=O)(=O)N(CCOCC(=O)NCCC2CCC(C(c3ccc(F)cc3)N(C)C)CC2)Cc2ccccc2)c(C)c1C (stereo not drawn) [Example 554]
B1R Ant. h [10 μM] % Inhibition [1]: 23% | B1R Ant. r [10 μM] % Inhibition [2]: −11%

CN(C)C(c1cccs1)C1CCC(CCNC(=O)COCCN2CCN(S(=O)(=O)c3ccccc3)CC2)CC1 (stereo not drawn) [Example 99, N-(2-(4-((dimethylamino)(thiophen-2-yl)methyl)cyclohexyl)ethyl)-2-(2-(4-(phenylsulfonyl)piperazin-1-yl)ethoxy)acetamide]
inhibition at 10 µM [1]: -8% | inhibition at 10 µM [2]: -8%
